Laboratory results: ChEMBL document CHEMBL4819093, “Discovery of 1-[2-(1-methyl-1H-pyrazol-5-yl)-[1,2,4]triazolo[1,5-a]pyridin-6-yl]-3-(pyridin-4-ylmethyl)urea as a potent NAMPT (nicotinamide phosphoribosyltransferase) activator with attenuated CYP inhibition” (Bioorg Med Chem Lett, 2021)
≈ marks a conversion by molar mass, not a printed value.

Assays:
CYP3A4 = CYP3A4 (Homo sapiens, UniProt P08684); assay: Inhibition of CYP3A4 (unknown origin) at 10 uM measured after 10 mins; type: ADME
CYP2C9 = CYP2C9 (Homo sapiens, UniProt P11712); assay: Inhibition of CYP2C9 (unknown origin) at 10 uM measured after 10 mins; type: ADME
CYP1A2 = molecular target: T1, CYP1A2 (Homo sapiens, UniProt P05177); assay: Inhibition of CYP1A2 (unknown origin) at 10 uM measured after 10 mins; type: ADME
T1 sequence (P05177 whole entry): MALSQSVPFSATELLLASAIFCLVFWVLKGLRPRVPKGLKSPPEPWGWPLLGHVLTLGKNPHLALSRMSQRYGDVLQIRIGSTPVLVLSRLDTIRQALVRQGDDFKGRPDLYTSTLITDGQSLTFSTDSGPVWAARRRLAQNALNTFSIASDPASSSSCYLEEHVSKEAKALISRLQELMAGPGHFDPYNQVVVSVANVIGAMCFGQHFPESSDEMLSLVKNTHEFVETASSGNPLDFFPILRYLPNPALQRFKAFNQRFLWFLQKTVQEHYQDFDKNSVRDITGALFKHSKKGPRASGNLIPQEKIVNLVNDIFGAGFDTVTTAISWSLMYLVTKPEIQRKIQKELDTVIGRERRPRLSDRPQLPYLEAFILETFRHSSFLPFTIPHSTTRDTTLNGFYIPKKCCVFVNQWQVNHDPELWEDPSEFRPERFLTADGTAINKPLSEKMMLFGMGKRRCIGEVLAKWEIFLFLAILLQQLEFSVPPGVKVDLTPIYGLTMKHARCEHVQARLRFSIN

CYP2D6 = CYP2D6 (Homo sapiens, UniProt P10635); assay: Inhibition of CYP2D6 (unknown origin) at 10 uM measured after 10 mins; type: ADME
[1] = Metabolic stability in mouse microsome fraction assessed as parent compound remaining at 1 uM measured after 30 mins; settings: microsomes
[2] = 1-Octanol/PBS buffer distribution coefficient, log D of the compound at pH 7.4
[3] = Permeability of the compound at pH 5 by PAMPA
[4] = Permeability of the compound at pH 7.4 by PAMPA
[5] = Metabolic stability in human microsome assessed as parent compound remaining at 1 uM measured after 30 mins; settings: microsomes
[6] = molecular target: T2, Nicotinamide phosphoribosyltransferase (Homo sapiens, UniProt P43490); assay: Inhibition of human NAMPT assessed as decrease in NMN production by fluorescence based analysis
[7] = molecular target: T2, Nicotinamide phosphoribosyltransferase; assay: Activation of human NAMPT assessed as increase in NMN production by fluorescence based analysis
hERG (KCNH2) [8] = molecular target: T3, hERG (KCNH2) (Homo sapiens, UniProt Q12809); assay: Inhibition of human ERG at 30 uM
in vivo [9] = settings: C57BL/6N, mouse, po, 10 mg/kg
hERG (KCNH2) [10] = molecular target: T3, hERG (KCNH2); assay: Inhibition of human ERG at 10 uM
[11] = Solubility of the compound at pH 6.8; settings: buffer
in vivo [12] = settings: C57BL/6N, mouse, po, 10 mg/kg; remark: listed apart in the source
[13] = Half life in C57BL/6N mouse at 10 mg/kg, po; settings: in vivo
hERG (KCNH2) [14] = molecular target: T3, hERG (KCNH2); assay: Inhibition of human ERG at 3 uM
[15] = Solubility of the compound at pH 1.2; settings: buffer

Chain of CYP3A4 (P08684 whole entry): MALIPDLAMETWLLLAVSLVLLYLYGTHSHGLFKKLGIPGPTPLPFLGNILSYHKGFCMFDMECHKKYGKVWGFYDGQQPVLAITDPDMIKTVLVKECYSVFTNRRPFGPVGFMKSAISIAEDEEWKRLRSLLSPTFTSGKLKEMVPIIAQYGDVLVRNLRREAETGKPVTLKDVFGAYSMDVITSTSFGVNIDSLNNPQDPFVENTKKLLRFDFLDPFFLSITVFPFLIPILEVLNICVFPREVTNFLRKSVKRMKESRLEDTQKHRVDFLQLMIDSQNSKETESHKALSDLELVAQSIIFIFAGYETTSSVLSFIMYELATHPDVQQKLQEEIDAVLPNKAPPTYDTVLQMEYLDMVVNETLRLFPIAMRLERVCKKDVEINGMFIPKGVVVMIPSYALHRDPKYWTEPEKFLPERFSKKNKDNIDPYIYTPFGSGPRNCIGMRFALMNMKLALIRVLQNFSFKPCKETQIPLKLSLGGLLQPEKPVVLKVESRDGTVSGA
T3 sequence (Q12809 whole entry): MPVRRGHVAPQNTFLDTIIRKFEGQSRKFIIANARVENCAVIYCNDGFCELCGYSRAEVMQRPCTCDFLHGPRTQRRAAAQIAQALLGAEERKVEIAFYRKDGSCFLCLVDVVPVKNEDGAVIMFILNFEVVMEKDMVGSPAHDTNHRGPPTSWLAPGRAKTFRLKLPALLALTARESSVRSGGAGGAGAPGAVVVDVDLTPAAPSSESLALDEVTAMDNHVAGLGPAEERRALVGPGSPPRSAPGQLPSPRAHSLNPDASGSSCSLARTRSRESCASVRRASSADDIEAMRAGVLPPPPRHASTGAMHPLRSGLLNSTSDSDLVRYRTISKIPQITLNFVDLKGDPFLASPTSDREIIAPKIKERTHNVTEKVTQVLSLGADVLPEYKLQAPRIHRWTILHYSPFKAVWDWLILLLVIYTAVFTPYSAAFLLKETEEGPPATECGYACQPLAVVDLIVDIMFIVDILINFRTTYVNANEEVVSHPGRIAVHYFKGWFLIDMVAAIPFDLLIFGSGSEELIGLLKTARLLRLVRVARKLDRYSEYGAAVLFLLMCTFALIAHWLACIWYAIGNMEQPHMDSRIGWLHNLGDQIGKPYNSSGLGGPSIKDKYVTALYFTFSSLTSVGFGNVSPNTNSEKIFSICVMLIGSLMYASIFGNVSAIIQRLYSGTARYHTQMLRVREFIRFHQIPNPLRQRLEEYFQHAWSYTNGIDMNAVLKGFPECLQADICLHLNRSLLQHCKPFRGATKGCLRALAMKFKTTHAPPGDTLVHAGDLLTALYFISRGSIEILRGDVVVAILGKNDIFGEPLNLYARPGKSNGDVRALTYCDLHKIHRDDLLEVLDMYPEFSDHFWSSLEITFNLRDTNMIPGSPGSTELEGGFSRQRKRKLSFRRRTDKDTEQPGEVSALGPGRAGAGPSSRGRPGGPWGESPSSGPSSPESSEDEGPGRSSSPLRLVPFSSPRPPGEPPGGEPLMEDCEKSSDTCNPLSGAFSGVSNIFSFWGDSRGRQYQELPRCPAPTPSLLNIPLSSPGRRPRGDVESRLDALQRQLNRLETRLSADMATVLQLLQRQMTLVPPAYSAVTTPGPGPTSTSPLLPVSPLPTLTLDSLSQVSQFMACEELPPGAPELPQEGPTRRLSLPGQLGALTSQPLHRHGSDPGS
Chain of CYP2C9 (P11712 whole entry): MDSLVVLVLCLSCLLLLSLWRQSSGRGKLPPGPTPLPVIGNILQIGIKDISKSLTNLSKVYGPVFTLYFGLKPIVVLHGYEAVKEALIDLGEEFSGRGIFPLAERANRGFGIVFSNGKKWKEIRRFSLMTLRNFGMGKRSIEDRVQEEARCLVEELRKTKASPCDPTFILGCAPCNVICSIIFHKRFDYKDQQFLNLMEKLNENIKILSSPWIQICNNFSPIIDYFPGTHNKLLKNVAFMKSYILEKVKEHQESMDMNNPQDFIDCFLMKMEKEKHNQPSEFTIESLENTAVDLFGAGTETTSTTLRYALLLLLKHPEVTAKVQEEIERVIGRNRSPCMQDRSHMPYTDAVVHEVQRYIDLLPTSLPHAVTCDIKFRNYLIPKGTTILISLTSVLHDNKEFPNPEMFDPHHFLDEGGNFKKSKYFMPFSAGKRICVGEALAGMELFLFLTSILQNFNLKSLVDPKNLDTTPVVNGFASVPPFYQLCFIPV
Chain of CYP2D6 (P10635 whole entry): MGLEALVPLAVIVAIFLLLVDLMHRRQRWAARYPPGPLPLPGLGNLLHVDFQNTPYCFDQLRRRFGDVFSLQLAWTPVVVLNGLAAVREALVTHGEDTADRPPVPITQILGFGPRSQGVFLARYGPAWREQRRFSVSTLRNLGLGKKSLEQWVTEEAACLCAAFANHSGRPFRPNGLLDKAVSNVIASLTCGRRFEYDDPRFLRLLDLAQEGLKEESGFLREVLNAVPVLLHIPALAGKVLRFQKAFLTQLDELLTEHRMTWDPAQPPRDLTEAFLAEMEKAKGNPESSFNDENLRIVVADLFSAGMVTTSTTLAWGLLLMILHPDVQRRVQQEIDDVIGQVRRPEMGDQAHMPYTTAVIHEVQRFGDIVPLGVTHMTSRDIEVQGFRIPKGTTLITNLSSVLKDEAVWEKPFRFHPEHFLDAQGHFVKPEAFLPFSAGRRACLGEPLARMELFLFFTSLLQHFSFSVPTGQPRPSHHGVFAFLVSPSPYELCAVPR
T2 sequence (P43490 whole entry): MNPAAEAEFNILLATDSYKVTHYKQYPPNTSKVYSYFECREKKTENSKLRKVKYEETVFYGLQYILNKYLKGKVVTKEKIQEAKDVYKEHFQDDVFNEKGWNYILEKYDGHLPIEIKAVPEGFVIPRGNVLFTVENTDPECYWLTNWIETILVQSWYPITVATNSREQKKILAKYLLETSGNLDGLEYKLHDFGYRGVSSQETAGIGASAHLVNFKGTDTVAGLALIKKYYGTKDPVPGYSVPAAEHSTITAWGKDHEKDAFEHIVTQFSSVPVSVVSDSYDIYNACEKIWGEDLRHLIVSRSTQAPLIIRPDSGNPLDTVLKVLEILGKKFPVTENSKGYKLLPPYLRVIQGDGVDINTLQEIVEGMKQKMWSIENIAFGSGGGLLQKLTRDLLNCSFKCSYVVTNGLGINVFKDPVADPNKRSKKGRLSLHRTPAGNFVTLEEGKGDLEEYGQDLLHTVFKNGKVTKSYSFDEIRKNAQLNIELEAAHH

inhibition at 10 min, 10 µM (CYP3A4)	inhibition at 10 min, 10 µM (CYP2C9)	inhibition at 10 min, 10 µM (CYP1A2)	inhibition at 10 min, 10 µM (CYP2D6)	EC50 [7]	SMILES	other results
40%	75%	51%	27%	120 nM	Cn1cccc1-c1nc2ccc(NC(=O)NCc3ccncc3)cn2n1	logD [2]: 2.6
37%	79%	63%	21%	83 nM	O=C(NCc1ccncc1)Nc1ccc2nc(-c3ccccc3)nn2c1	remaining at 0.5 h, 1 µM [1]: 86%; logD [2]: 3; inhibition at 30 µM (hERG (KCNH2) [8]): 69%; AUC(0-t) at 24 h (in vivo [9]): 25 µM·h; inhibition at 10 µM (hERG (KCNH2) [10]): 51%; solubility [11]: 92 µg/mL (≈ 267 µM); Papp [3]: 1.42 ×10⁻⁶ cm/s; Papp [4]: 2.76 ×10⁻⁶ cm/s; Cmax (in vivo [12]): 9.2 µM; half-life [13]: 54 min; inhibition at 3 µM (hERG (KCNH2) [14]): 20%; solubility [15]: > 680 µg/mL; remaining at 0.5 h, 1 µM [5]: 95%
0%	90%	28%	36%	–	O=C(NCc1ccncc1)Nc1ccc2nc(-c3cccc(OC(F)(F)F)c3)nn2c1	–
0%	81%	8%	24%	> 100000 nM	O=C(NCc1ccncc1)Nc1ccc2nc(-c3ccc(OC(F)(F)F)cc3)nn2c1	logD [2]: 4.4
25%	42%	15%	16%	–	Cn1nccc1-c1nc2ccc(NC(=O)NCc3ccncc3)cn2n1	inhibition at 30 µM (hERG (KCNH2) [8]): 25%; inhibition at 10 µM (hERG (KCNH2) [10]): 14%; inhibition at 3 µM (hERG (KCNH2) [14]): 11%
65%	78%	43%	50%	–	O=C(NCc1ccncc1)Nc1ccc2nc(-c3ccccc3OC(F)(F)F)nn2c1	–

The next lines start with the compound.

SMILES	inhibition at 10 min, 10 µM (CYP3A4)	inhibition at 10 min, 10 µM (CYP2C9)	inhibition at 10 min, 10 µM (CYP1A2)	inhibition at 10 min, 10 µM (CYP2D6)	EC50 [7]	other results
O=C(NCc1ccncc1)Nc1ccc2cc(-c3ccccc3)nn2c1	53%	78%	81%	70%	–	–
O=C(NCc1ccncc1)Nc1ccc2cn(-c3ccccc3)nc2c1	75%	74%	88%	50%	–	remaining at 0.5 h, 1 µM [1]: 83%; logD [2]: 3.2; Papp [3]: 4.6 ×10⁻⁶ cm/s; Papp [4]: > 5 ×10⁻⁶ cm/s; remaining at 0.5 h, 1 µM [5]: 87%
Cc1ccc(C(=O)N2CCc3cc(NC(=O)NCc4cccnc4)ccc32)cc1	–	–	–	–	–	IC50 [6]: 32 nM
CC(C)c1nc2ccc(NC(=O)NCc3ccncc3)cn2n1	–	–	–	–	5800 nM	–
COCCn1nccc1-c1nc2ccc(NC(=O)NCc3ccncc3)cn2n1	18%	44%	6%	13%	–	–
Cc1ccc(C(=O)N2CCc3cc(NC(=O)NCc4ccncc4)ccc32)cc1	–	–	–	–	480 nM	–
O=C(NCc1cn[nH]c1)Nc1ccc2nc(-c3ccccc3)nn2c1	0%	59%	86%	23%	–	–
CC(C)n1nccc1-c1nc2ccc(NC(=O)NCc3ccncc3)cn2n1	4%	79%	12%	17%	–	–
O=C(NCc1cnco1)Nc1ccc2nc(-c3ccccc3)nn2c1	0%	59%	69%	13%	–	–
